Test results from US20230173029A1, “TREATMENT OF CARDIAC REMODELLING” (UNIVERSITETET I OSLO, priority 2020, published 2023).

Tested on: Dahl salt-sensitive (Dahl/SS) male rats
Test: Transthoracic echocardiography of cardiac structure and function in hypertensive Dahl/SS rats
Assay type: in vivo, rat
Conditions: for E/A (ratio E wave to A wave) / EF (ejection fraction) / FS (fractional shortening) / IVS; d (inter-ventricular septum, diastole) / IVS; s (inter-ventricular septum, systole) / LA (left atrium diameter) / LV Mass (left ventricular mass) / LV Vol; d (left ventricular volume, diastole) / LV Vol; s (left ventricular volume, systole) / LVPW; d (left ventricular posterior wall, diastole) / LVPW; s (left ventricular posterior wall, systole) / RWT (relative wall thickness): HT Dahl/SS rats on high salt diet, at 6 weeks, mean ± SEM
Description: A total of 29 adult Dahl salt-sensitive (Dahl/SS) male rats with an initial weight of 150 to 200 g were included in the study. Rats were purchased from Charles River Laboratories (USA) and housed in a room with a 12/12-hour light cycle, a temperature of 21° C., and a humidity of 55%. Rats were maintained on a normal salt diet up to seven weeks of age. Twenty-two Dahl/SS were then randomly switched to a high salt diet for 6 weeks to induce hypertension, whilst 7 rats were kept normotensive (NT) on normal salt diet. Drinking water and food was provided ad libitum.
After 2 weeks of high salt diet, 15 hypertensive (HT) rats were started on treatment with proANP31-67. Rats treated with proANP31-67 received one of two dosages: 50 ng/kg/day (n=8) or 100 ng/kg/day (n=7). A total of 14 rats received only vehicle: control rats on a normal salt diet (n=7); and HT rats on a high salt diet (n=7). Rats were randomly assigned to the 3 groups (i.e. control normal salt; high salt untreated; high salt plus treatment).
Drug or vehicle was delivered via Alzet osmotic mini-pumps (Model 2004; mean pumping rate […], mean fill volume […]) implanted subcutaneously (as instructed by the manufacturer) for 28 days. Animals were treated with buprenorphine (0.05 mg/kg s.c.) as analgesic 30 minutes before and up to 1 day following implantation of pumps.
Cardiac function was assessed by transthoracic echocardiography using a VEVO 2100 high resolution in vivo imaging system from VisualSonics (Canada). Briefly, animals were maintained under anesthesia (1.5-2% isoflurane mixed with oxygen) on a pre-warmed ECG transducer pad with body temperature and ECG monitored. Measurements were made with an MS250 transducer, frequency set at 24 MHz. M-mode in the parasternal long axis view was performed to assess the function and dimension of the left ventricle and left atrium. LVEF was calculated as 100×((LV Vol;d−LV Vol;s)/LV Vol;d). LV mass was estimated by the formula: 1.053×((LVID;d+LVPW;d+IVS;d)3−LVID;d3). Relative wall thickness (RWT) was calculated as 2×LVPW;d/LVID;d.21 Normal geometry of the heart was defined as the 95th percentile for both LV Mass and RWT of the NT group. E and A waves in left ventricular filling velocities were assessed via pulsed-wave Doppler in a parasternal long axis view. Echocardiographic analysis were performed by an operator blinded to treatment group.
Experiments were performed as described above in Example 1, using a group of 8 Dahl/SS rats which, at 7 weeks of age, were switched to a high salt diet as described above. After 2 weeks of high salt diet, this group was started on proANP31-67 treatment. The rats were administered proANP31-67 at a renal sub-therapeutic dosage of 25 ng/kg/day.

[1] = 50 or 100 ng/kg/day s.c. (pooled) for 28 days

For “proANP31-67: Human proANP31-67, linear peptide fragment of proANP consisting of SEQ ID NO: 1; also known as vessel dilator, VSDL (EVVPPQVLSEPNEEAGAALSPLPEVPPWTGEVSPAQR; listed as Homo sapiens)”, the “E/A (ratio E wave to A wave)” value (25 ng/kg/day s.c.) was 1.47 ± 0.08, the “EF (ejection fraction)” value (25 ng/kg/day s.c.) was 79.6 ± 1.6% and the “FS (fractional shortening)” value (25 ng/kg/day s.c.) was 49.89 ± 1.7%. For the same substance, the “IVS; d (inter-ventricular septum, diastole)” value (25 ng/kg/day s.c.) was 1.67 ± 0.03 mm, the “IVS; s (inter-ventricular septum, systole)” value (25 ng/kg/day s.c.) was 3.12 ± 0.10 mm and the “LA (left atrium diameter)” value (25 ng/kg/day s.c.) was 4.13 ± 0.17 mm. For the same substance, the “LV Mass (left ventricular mass)” value (25 ng/kg/day s.c.) was 872.5 ± 22.5 mg, the “LV Vol; d (left ventricular volume, diastole)” value (25 ng/kg/day s.c.) was 288.5 ± 15.4 µL and the “LV Vol; s (left ventricular volume, systole)” value (25 ng/kg/day s.c.) was 59.44 ± 6.2 µL. For the same substance, the “LVPW; d (left ventricular posterior wall, diastole)” value (25 ng/kg/day s.c.) was 1.67 ± 0.04 mm, the “LVPW; s (left ventricular posterior wall, systole)” value (25 ng/kg/day s.c.) was 2.81 ± 0.08 mm and the “RWT (relative wall thickness)” value (25 ng/kg/day s.c.) was 0.46 ± 0.02. For the same substance, the “E/A (ratio E wave to A wave)” value [1] was 1.6 ± 0.1, the “EF (ejection fraction)” value [1] was 78.2 ± 1.9% and the “FS (fractional shortening)” value [1] was 48.7 ± 1.8%. The “IVS; d (inter-ventricular septum, diastole)” value [1] was 1.7 ± 0.0 mm, the “IVS; s (inter-ventricular septum, systole)” value [1] was 3.1 ± 0.0 mm and the “LA (left atrium diameter)” value [1] was 4.2 ± 0.1 mm. The “LV Mass (left ventricular mass)” value [1] was 891.7 ± 12.9 mg, the “LV Vol; d (left ventricular volume, diastole)” value [1] was 265.1 ± 12.4 µL and the “LV Vol; s (left ventricular volume, systole)” value [1] was 58.0 ± 6.3 µL. For the same substance, the “LVPW; d (left ventricular posterior wall, diastole)” value [1] was 1.8 ± 0.0, the “LVPW; s (left ventricular posterior wall, systole)” value [1] was 2.9 ± 0.1 and the “RWT (relative wall thickness)” value [1] was 0.52 ± 0.02. The “diastolic function as defined by E/A ratio” value (HT Dahl/SS rats, 25 ng/kg/day s.c., FIG. 5C) was “preserved diastolic function”, the “change in LA diameter” value (HT Dahl/SS rats, 25 ng/kg/day s.c., FIG. 5D) was “much smaller change in LA diameter than the untreated HT group” and the “proportion of treated HT rats displaying normal cardiac geometry” value (HT Dahl/SS rats, 25 ng/kg/day s.c., FIG. 5E) was “all”. The “E/A ratio, relative fold change to NT controls” value (HT Dahl/SS rats, 50 or 100 ng/kg/day s.c. (pooled), FIG. 1C) was “preserved”, the “left atrium diameter larger compared to NT rats” value (HT Dahl/SS rats, 50 or 100 ng/kg/day s.c. (pooled), FIG. 1D) was “about 10%” and the “proportion of treated HT rats showing normal geometry (LV mass and RWT)” value (HT Dahl/SS rats, 50 or 100 ng/kg/day s.c. (pooled), FIG. 1E) was “approximately 70%”.
